“Also recorded” adds a separate entry of the source. Blank lines part the entries; values can stand above or below the compound they belong to.
Key:
[1] = system: polyQ-AR; assay: Myotube high content imaging of polyQ-AR in myotubes that overexpress polyQ-AR; format: cell-based, human
Experimental: Cells were maintained in skeletal growth medium (PromoCell #23160). Immortalized myoblasts harboring inducible human androgen receptor with 56 CAG repeats (hAR56Q) were constructed by lentiviral transduction with CMV-rtTA and TetO-AR56Q-T2A-Puromycin (Mamchaoui, K. et al. Skeletal Muscle 1, 34 (2011)).
On day 0, immortalized myoblasts with inducible polyQ-AR (described above in “Cell lines”) cells were seeded onto Geltrex-coated 96-well plates at a density of 4×10^6 cells per plate in myoblast basal media (Promocell C-23060) supplemented with 1% penicillin-streptomycin (Pen Strep) antibiotics. The plates were then incubated overnight at 37° C. in a 5% CO2 environment. Upon reaching 100% confluency (Day 1), the myoblast media were aspirated and replaced with myotube differentiation media (Promocell C-23061). The cells were cultured in this differentiation media for 6 days, with media changes occurring every three days.
On the sixth day of differentiation, the compounds and doxycycline ([…]) diluted in 100% dimethyl sulfoxide (DMSO) were added to the myotubes. The plate was then incubated for 24 hours at 37° C. in an incubator. On the following day (Day 7), the culture media was removed from the plates and replaced with 50 μL of 4% paraformaldehyde (PFA) prepared in 1× phosphate-buffered saline (PBS). The plates were incubated with PFA for 15 minutes, followed by three washes with PBS. Subsequently, the myotubes were permeabilized for 15 minutes using 0.5% Triton X-100 in 1×PBS and then blocked with 5% Bovine Serum Albumin (BSA) (Thermofisher, #37520) for one hour at room temperature. After blocking, the plates were incubated overnight at 4° C. with primary antibodies: a 1:100 diluted Androgen Receptor antibody (D6F11 Cell Signaling 5135S) and a 1:200 diluted Desmin antibody (Thermofisher, MA1-22150) in PBS containing 0.1% BSA. […] Degradation was quantified by determining the average intensity of AR within separate nuclear and cytoplasmic compartments in Desmin positive area (myotubes).

[2] = target: T1, AR (Homo sapiens, UniProt P10275); assay: AR agonism assay in MDA-MB-453 ARE-luc reporter cells in the presence of pomalidomide; format: cell-based; settings: MDA-MB-453 AR luciferase reporter, with pomalidomide
T1 sequence (P10275 1-920 Q868H): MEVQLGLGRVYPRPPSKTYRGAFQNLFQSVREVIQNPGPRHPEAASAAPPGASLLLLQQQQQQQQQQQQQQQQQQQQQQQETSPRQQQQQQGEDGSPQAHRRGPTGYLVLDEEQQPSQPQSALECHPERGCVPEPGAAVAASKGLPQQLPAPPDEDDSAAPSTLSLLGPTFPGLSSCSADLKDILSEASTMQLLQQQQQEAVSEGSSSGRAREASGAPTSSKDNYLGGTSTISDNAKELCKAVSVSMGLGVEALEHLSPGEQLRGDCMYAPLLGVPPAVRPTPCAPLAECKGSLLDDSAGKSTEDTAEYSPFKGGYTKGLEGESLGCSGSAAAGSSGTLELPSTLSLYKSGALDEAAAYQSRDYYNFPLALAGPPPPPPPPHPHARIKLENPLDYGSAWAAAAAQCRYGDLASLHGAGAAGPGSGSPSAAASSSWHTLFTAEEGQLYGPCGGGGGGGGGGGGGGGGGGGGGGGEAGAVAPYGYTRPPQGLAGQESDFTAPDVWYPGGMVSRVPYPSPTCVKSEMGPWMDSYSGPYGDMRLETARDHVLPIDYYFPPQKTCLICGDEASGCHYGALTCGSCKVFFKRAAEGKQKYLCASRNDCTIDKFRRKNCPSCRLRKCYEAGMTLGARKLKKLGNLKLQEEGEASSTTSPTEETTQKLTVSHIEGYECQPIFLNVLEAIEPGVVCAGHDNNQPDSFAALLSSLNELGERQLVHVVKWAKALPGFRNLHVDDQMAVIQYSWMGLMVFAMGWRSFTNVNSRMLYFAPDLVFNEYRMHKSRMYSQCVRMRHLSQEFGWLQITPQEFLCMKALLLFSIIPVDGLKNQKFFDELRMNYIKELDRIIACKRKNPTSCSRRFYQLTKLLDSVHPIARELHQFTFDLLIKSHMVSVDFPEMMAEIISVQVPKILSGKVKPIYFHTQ
Experimental: The AR Responsive Luciferase Reporter MDA-MB-453 Stable Cell Line (MDA-MB-453 ARE-luc) was utilized for the AR agonism assay. These cells constitutively express the firefly luciferase reporter gene under the control of the androgen receptor response element. MDA-MB-453 ARE-luc cells were cultured in RPMI media (Thermo Fisher Scientific) supplemented with 5% charcoal-Dextran treated fetal bovine serum and were maintained at 37° C. in a 5% CO2 incubator. On day 0, the cells were seeded in 96-well plates at a density of 5×10^6 cells per plate. To prevent serum androgen interference during the AR agonism assay, the cells were cultured in phenol-free RPMI media without FBS. On day 1, the cells were treated with the compounds to establish concentration-response curves (CRCs). The compounds were administered at a top concentration of 300 nM with half-log dilutions. The synthetic AR agonist R1881 served as a positive control, with a top concentration of 30 nM and half-log dilutions. E3 ligase inhibitor pomalidomide was included in each well alongside the compounds at a concentration tenfold higher than that of the treated compounds. On day 2, the culture medium was removed, and luminescence data were obtained using the Bright Glo Assay (Promega, Catalog No. E2620) with 50 μL of Bright Glo buffer per well. Luminescence signals were recorded using a plate reader, and the agonism effect was calculated as a percentage using the formula: Agonism effect (%)=(Luminescence signal of compound/Maximum signal of R1881 at 30 nM)*100.

[3] = target: T2, PDE6D (Homo sapiens, UniProt O43924); assay: Global proteomics / Western blot in SBMA hiPSC-myotubes: neosubstrate PDE6D; format: cell-based; settings: global proteomics, SBMA hiPSC-myotubes
T2 construct: endogenous in cells; host or cells: SBMA hiPSC-derived myotubes
T2 sequence (O43924 whole entry): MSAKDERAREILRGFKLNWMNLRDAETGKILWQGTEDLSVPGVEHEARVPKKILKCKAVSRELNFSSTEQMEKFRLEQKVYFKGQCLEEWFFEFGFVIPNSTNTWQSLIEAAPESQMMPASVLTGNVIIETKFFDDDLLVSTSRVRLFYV
Source text: (§1) (FIG. 12A). […] (FIG. 12C).

[4] = system: polyQ-AR; assay: polyQ-AR degradation in SBMA patient hiPSC-derived myotubes, capillary immunoassay; format: cell-based, human; settings: concentration response
Experimental: Lysates for hiPSC-derived myotubes were prepared in lysis buffer ([…], 50 mM sodium chloride, 1% NP-40, 1% SDS) supplemented with Halt Protease Inhibitor (78437 Thermo Fisher Scientific), Benzonase, and MgCl2 (1 mM final concentration). The lysates were cleared by centrifugation at 4° C. and supernatants were quantified using the BIO-RAD DC protein assay (5000112 BIO-RAD). The AR and protein levels were quantified by an automated capillary immunoassay experiment (ProteinSimple). The AR and Myosin Protein levels were quantified and normalized to total protein.
Control and SBMA hiPSCs were differentiated into myotubes as previously described (Caron, L. et al. 2016, STEM CELLS Transl. Med. 5, 1145-1161) using the skeletal muscle differentiation kit (Amsbio). hiPSCs were dissociated to single cells using Accutase and plated on Geltrex-coated 10 cm culture plates at a density of 200,000 cells per plate with SBMA hiPSCs in skeletal muscle induction media (SKM01, AMSBIO). Media changes were performed every second day until cells were confluent (˜7 days). The resulting myogenic precursor cells were then dissociated to single cells using Accutase and replated on Matrigel-coated 24-well tissue culture plate with 500 μL of cells at 35,000 cells per mL in skeletal myoblast media (SKM02, AMSBIO). Half media changes were performed every second day until myoblasts reached confluence (˜7 days). The media was then switched to myotube medium (SKM03, ASMBIO). Media changes every second day until myotube formation was confirmed by microscopy. Myotubes were treated on day 20 of differentiation (6 days' worth of SKM03 media) with compounds diluted in DMSO for a final DMSO concentration of 0.01% in SKM03 media. The cells were lysed 24 hours later in Pierce RIPA buffer (Cat. No. 89900, ThermoFisher) supplemented with 1× Halt protease inhibitor cocktail (Cat. No. 87786, ThermoFisher), 1 mM MgCl2, and 1 μL Benzonase Nuclease. AR protein was measured by capillary electrophoresis. […]

[5] = system: polyQ-AR; assay: Global proteomics in SBMA hiPSC-myotubes: polyQ-AR and specificity; format: cell-based, human; settings: 12 nM, SBMA hiPSC-myotubes
Source text: as §1

[6] = target: hERG (Homo sapiens, UniProt Q12809); assay: In vitro ADMET: hERG inhibition
hERG, sequence (Q12809 whole entry): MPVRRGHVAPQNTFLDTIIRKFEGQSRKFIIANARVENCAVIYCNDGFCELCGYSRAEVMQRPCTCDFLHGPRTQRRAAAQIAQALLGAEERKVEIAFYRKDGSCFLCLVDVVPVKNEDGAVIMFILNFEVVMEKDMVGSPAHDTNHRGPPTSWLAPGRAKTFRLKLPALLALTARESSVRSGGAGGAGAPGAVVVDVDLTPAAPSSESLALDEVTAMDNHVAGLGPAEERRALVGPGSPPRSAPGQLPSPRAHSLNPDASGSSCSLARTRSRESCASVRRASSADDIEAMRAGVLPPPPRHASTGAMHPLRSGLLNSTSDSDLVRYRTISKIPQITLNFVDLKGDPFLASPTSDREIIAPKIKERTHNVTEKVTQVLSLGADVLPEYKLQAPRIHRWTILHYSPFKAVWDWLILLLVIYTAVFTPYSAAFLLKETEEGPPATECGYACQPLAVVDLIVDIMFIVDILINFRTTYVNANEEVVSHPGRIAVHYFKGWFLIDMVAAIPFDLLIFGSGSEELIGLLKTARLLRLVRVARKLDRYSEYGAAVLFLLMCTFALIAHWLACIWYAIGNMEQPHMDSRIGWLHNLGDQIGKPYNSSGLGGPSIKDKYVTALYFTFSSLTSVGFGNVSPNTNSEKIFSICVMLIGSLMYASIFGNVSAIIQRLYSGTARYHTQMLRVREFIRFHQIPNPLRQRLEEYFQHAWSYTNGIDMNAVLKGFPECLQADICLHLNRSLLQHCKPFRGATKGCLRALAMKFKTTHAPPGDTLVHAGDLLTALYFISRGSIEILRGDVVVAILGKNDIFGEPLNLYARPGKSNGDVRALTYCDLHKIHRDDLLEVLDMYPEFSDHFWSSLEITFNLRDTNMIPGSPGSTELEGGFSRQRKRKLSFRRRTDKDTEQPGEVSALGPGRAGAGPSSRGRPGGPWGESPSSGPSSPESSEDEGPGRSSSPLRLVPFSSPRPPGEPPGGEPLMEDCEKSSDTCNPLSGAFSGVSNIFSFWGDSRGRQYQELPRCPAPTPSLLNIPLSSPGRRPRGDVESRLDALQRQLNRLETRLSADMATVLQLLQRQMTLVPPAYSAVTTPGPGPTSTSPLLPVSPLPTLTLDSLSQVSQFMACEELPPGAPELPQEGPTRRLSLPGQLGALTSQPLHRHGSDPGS

[7] = system: hepatocyte; assay: In vitro ADMET: hepatocyte toxicity; format: cell-based; settings: at 1 μM
[8] = Oral bioavailability in non-human primates; format: in vivo

SMILES: Cc1cc(O[C@H]2C(C)(C)[C@H](NC(=O)c3cnc(N4CCC(CN(C(C)C)[C@H]5C[C@H](Oc6ccc7c(c6)C(=O)N(C6CCC(=O)NC6=O)C7=O)C5)CC4)nc3)C2(C)C)cc(C)c1C#N (stereo partly shown) [Compound B]
mean Dmax for polyQ-AR in myotube nuclei ([1]; 24 hours treatment, nuclear compartment): increase in nuclear polyQ-AR
total polyQ-AR signal in myotubes ([1]; data not shown): reduced the total polyQ-AR signal
agonism activity at Emax relative to R1881 [2]: > 40%
EC50 ([2]; read-out: EC50, AR agonist activity): 37 nM

SMILES: CCN(CC1CCN(c2cnc(C(=O)N[C@H]3C(C)(C)[C@H](Oc4cc(C)c(C#N)c(C)c4)C3(C)C)cn2)CC1)[C@H]1C[C@H](Oc2ccc3c(c2)C(=O)N(C2CCC(=O)NC2=O)C3=O)C1 (stereo partly shown) [Compound D]
hERG inhibition [6]: < 10 µM

SMILES: CC1(C)[C@H](NC(=O)c2cnc(N3CCC(CN4CCN(c5cc6c(cc5F)C(=O)N(C5CCC(=O)NC5=O)C6=O)CC4)CC3)nc2)C(C)(C)[C@H]1Oc1ccc(C#N)c(Cl)c1 (stereo partly shown) [Compound C]
hepatocyte toxicity [7]: 50%

Continued, in another order:

PDE6D as neosubstrate [3]: not a neosubstrate
SMILES: CC(C)N(CC1CCN(c2ncc(C(=O)N[C@H]3C(C)(C)[C@H](Oc4ccc(C#N)c(Cl)c4)C3(C)C)cn2)CC1)[C@H]1C[C@H](Oc2ccc3c(c2)C(=O)N(C2CCCN(C)C2=O)C3=O)C1 (stereo partly shown) [Compound F, reference compound]
polyQ-AR degradation in SBMA hiPSC-myotubes [4]: did not induce polyQ-AR degradation
polyQ-AR degradation compared to control, global proteomics [5]: does not induce degradation; also recorded: does not degrade AR

oral bioavailability [8]: poor oral bioavailability
SMILES: COc1cc(O[C@H]2CC[C@H](NC(=O)c3cnc(N4CCC(CN(C(C)C)[C@H]5C[C@H](Oc6ccc7c(c6)C(=O)N(C6CCC(=O)NC6=O)C7=O)C5)CC4)cn3)CC2)ccc1C#N (stereo partly shown) [Compound E]

Reference: patent publication US12496301B2, “Use of androgen receptor degrader for the treatment of spinal and bulbar muscular atrophy” (Arvinas Operations, Inc., priority 2023, dated 2025)
